Molecules are shown by their SMILES. pKi: −log10 of the molar value.

The results in this text go back to ChEMBL document CHEMBL1127234, “Acceptor analogues as potential inhibitors of bovine -1,4-galactosyl transferase” (Bioorg Med Chem Lett, 1994).

Experiment [1] concerns the target T1, Beta-1,4-galactosyltransferase 1 (Bos taurus) (UniProt P08037).
T1 sequence (whole entry): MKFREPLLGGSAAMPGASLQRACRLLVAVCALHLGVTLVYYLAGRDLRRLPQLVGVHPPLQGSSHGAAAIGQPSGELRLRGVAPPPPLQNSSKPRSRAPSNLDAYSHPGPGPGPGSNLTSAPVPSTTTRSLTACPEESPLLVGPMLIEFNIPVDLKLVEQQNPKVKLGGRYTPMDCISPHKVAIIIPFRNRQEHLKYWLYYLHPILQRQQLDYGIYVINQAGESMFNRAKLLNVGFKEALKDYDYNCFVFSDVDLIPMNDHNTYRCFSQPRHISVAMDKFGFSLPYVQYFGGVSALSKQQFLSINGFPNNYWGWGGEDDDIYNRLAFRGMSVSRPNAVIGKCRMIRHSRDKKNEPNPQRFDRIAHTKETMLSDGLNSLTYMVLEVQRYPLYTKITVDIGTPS
In words: (§1) Inhibitory activity against bovine Beta-1,4-galactosyltransferase at 100 uM concentration.

The target in experiment [2] is T1, Beta-1,4-galactosyltransferase 1 (Bos taurus). In words: Inhibitory activity against bovine Beta-1,4-galactosyltransferase at 100 uM concentration; ND means Not detectable.
In experiment [3] the target is T2, Beta-1,4-galactosyltransferase 1 (Bos taurus, UniProt P08037).
T2 sequence (P08037 whole entry): T1 sequence (whole entry)
Described as §1.

In turn, `CC(=O)N[C@H]1[C@H](O)[C@@H](N=[N+]=[N-])[C@H](OCc2ccccc2)O[C@@H]1CO` registered a Rate in experiment [1] of 27%.

Compound `CC(=O)N[C@H]1[C@H](O)[C@@H](N)[C@H](OCc2ccccc2)O[C@@H]1CO` displayed a Rate in experiment [1] of 4%.

Regarding `CC(=O)N[C@H]1[C@H](OCc2ccccc2)O[C@H](CO)[C@@H](NC(C)=O)[C@@H]1O`, the Rate in experiment [1] is 2%; in experiment [2] it was “Not detectable”.

With `CC(=O)N[C@H]1[C@H](OCc2ccccc2)O[C@H](CO)[C@@H](O)[C@@H]1O`, the Rate in experiment [1] is 100%.

In the case of `CC(=O)N[C@H]1[C@H](OCc2ccccc2)O[C@H](CO)[C@@H](N)[C@@H]1O`, the Rate in experiment [1] turned out to be 2%. Moreover, the pKi (as a rule, the negative decadic logarithm of the Ki, by convention in mol/L) in experiment [3] is 3.07.

Consider `CC(=O)N[C@H]1[C@H](OCc2ccccc2)O[C@H](CO)[C@@H](N=[N+]=[N-])[C@@H]1O`, for which the Rate entry in experiment [2] was “Not detectable”.
